In patent US6548553B2, “Styryl sulfone anticancer agents” (Temple University-of the Commonwealth System of Higher …, priority 1997, dated 2003):

Assays:
Assay type in all cases: cell-based
NIH3T3 or HFL = assay: Cell cycle analysis, normal cell lines
H209 = assay: GI50 growth inhibition, trypan blue cell count; conditions: Homo sapiens, NCI-H209; lung, small cell; 96 hours after addition
Description: (§1) The human carcinoma cell lines listed in Table 5 below were purchased from ATCC and grown in an appropriate growth medium containing 10% fetal bovine serum (FBS) and antibiotics. The cells were plated at a cell density of 1.0×10^5 cells per […] in 6-well dishes. The cells were treated with various concentrations of (E)-fluorostyryl-4-bromobenzylsulfone 24 hours after plating in a total volume of 1 ml of medium using dimethylsulfoxide (DMSO) as a solvent for the compound. Control cells were treated with DMSO alone. The total number of viable cells was determined 96 hours after the addition of the compound by counting the cells in each well using a hemacytometer after trypan blue staining (viable cells exclude the stain). The counts were done in duplicate and the average was graphed in FIG. 8 as a percentage of the non-treated control group.
(§2) Applying the same protocol as in Example 34, the GI50 for compound FRI-20 treatment of the cell lines in Table 6 was determined: […]

Daudi = assay: GI50 growth inhibition, trypan blue cell count; conditions: Homo sapiens, Burkets lymphoma, 96 hours after addition
Description: as §1, §2

CAKI-2 = assay: GI50 growth inhibition, trypan blue cell count; conditions: Homo sapiens, renal, 96 hours after addition
Description: as §1, §2

MES-SA = assay: GI50 growth inhibition, trypan blue cell count; conditions: Homo sapiens, uterine sarcoma, 96 hours after addition
Description: as §1, §2

Hs 416.T = assay: GI50 growth inhibition, trypan blue cell count; conditions: Homo sapiens; squamous papilloma; 96 hours after addition
Description: as §1, §2

Raji = assay: GI50 growth inhibition, trypan blue cell count; conditions: Homo sapiens, Burkets lymphoma, 96 hours after addition
Description: as §1, §2

N417 = assay: GI50 growth inhibition, trypan blue cell count; conditions: Homo sapiens, lung, small cell, 96 hours after addition
Description: as §1, §2

BxPC-3 = assay: GI50 growth inhibition, trypan blue cell count; conditions: Homo sapiens, pancreatic, 96 hours after addition
Description: as §1, §2

A431 = assay: GI50 growth inhibition, trypan blue cell count; conditions: Homo sapiens, A-431; epidermoid; 96 hours after addition
Description: as §1, §2

Hs-802.T = assay: GI50 growth inhibition, trypan blue cell count; conditions: Homo sapiens; squamous cell carcinoma; 96 hours after addition
Description: as §1, §2

HCT116 = assay: GI50 growth inhibition, trypan blue cell count; conditions: Homo sapiens, HCT-116; cob-rectal; 96 hours after addition
Description: as §1, §2

H1299 = assay: GI50 growth inhibition, trypan blue cell count; conditions: Homo sapiens, NCI-H1299; lung, non-small cell; 96 hours after addition
Description: as §1, §2

H80 = assay: GI50 growth inhibition, trypan blue cell count; conditions: Homo sapiens; glioblastoma; 96 hours after addition
Description: as §1, §2

TE 354 = assay: GI50 growth inhibition, trypan blue cell count; conditions: Homo sapiens; basal cell carcinoma; 96 hours after addition
Description: as §1, §2

Detroit 525 = assay: GI50 growth inhibition, trypan blue cell count; conditions: Homo sapiens; Turner Syndrome skin fibroblast; 96 hours after addition
Description: as §1, §2

SK-MEL-3 = assay: GI50 growth inhibition, trypan blue cell count; conditions: Homo sapiens, SK-MEL3; melanoma; 96 hours after addition
Description: as §1, §2

SK-ov-3 = assay: GI50 growth inhibition, trypan blue cell count; conditions: Homo sapiens, ovarian, 96 hours after addition
Description: as §1, §2

Hs 456.BT = assay: GI50 growth inhibition, trypan blue cell count; conditions: Homo sapiens; benign skin lesion; 96 hours after addition
Description: as §1, §2

OvCar-3 = assay: GI50 growth inhibition, trypan blue cell count; conditions: Homo sapiens, ovarian, 96 hours after addition
Description: as §1, §2

CEM = assay: GI50 growth inhibition, trypan blue cell count; conditions: Homo sapiens, CCRF-CEM; acute lymphocytic lymphoma; 96 hours after addition
Description: as §1, §2

SW1088 = assay: GI50 growth inhibition, trypan blue cell count; conditions: Homo sapiens, astrocytoma, 96 hours after addition
Description: as §1, §2

CAKI-1 = assay: GI50 growth inhibition, trypan blue cell count; conditions: Homo sapiens, renal, 96 hours after addition
Description: as §1, §2

PC-3 cells = assay: Trypan blue exclusion viability assay, prostate tumor cell line; set-up: unit of the concentration uncertain; conditions: 48 hours
Description: The effect of FR-20 on the growth of normal and tumor cells of breast and prostate was examine utilizing nine cell lines: NIH/3T3 and HFL (normal fibroblast cell lines); MCF-7 and 361 ([…] breast tumor cell lines); BT-20, 435 and SKBR-3 ([…] breast tumor cell lines); LnCaP (androgen sensitive prostate tumor cell line); PC-3 and DU-145 (androgen insensitive prostate tumor cell line).
The cells were grown as in Example 22, A. FR-20 was dissolved in DMSO and added to the cells at 2.5 μM and 5.0 μM concentration. To control cells, DMSO was added equivalent to the volume of solvent (DMSO) present at the highest concentration of the compound. The activity of the compound was evaluated after 48 hours by Trypan blue exclusion. […] Nearly 50% of SKBR-3 and BT-20 cells were dead at 2.5 μM and 75% at 5.0 μM concentration of the compound. […] FRI-20 had profound effect on the viability of androgen-dependent LnCaP prostate tumor cell line when compared to androgen-independent DU-145 and PC-3 prostate cell lines. At […] FRI-20, 80% of LnCaP, 40% of PC-3 and 20% of DU-145 cells were killed. At […] FRI-20, 72% of LnCaP, 47% of PC-3 and 40% of DU-145 were killed (FIG. 3B).

LnCaP cells = assay: Cell cycle analysis by propidium iodide flow cytometry (FACS); conditions: 2.0 μM; harvested 6, 12, 24 and 48 hours
Description: The androgen-dependent prostate tumor cell line LnCaP was grown as in Ex. 22, A, and treated with 2.0 μM FRI-20 dissolved in DMSO or with equivalent amounts ([…]) of DMSO alone. Cells were harvested 6, 12, 24, and 48 hours following treatment and stained with propidium iodide and subjected to flow cytometry (FACS) for analysis of DNA content.

O=S(=O)(/C=C/c1ccc(F)cc1)Cc1ccc(Cl)cc1 [Example 11, E-4-fluorostyryl 4-chlorobenzyl Sulfone]
effect on cell cycle progression (NIH3T3 or HFL): failed to produce a similar effect on cell cycle progression | GI50 (H209): 1 µM | GI50 (Daudi): 2 µM | GI50 (CAKI-2): 1 µM | GI50 (MES-SA): 1 µM | GI50 (Hs 416.T): 4 µM | GI50 (Raji): 2 µM | GI50 (N417): 1 µM | GI50 (BxPC-3): 0.5 µM | GI50 (A431): 0.8 µM | GI50 (Hs-802.T): 4 µM | GI50 (HCT116): 1 µM | GI50 (H1299): 2 µM | GI50 (H80): 1.5 µM | GI50 (TE 354): 4 µM | GI50 (Detroit 525): 3 µM | GI50 (SK-MEL-3): 2 µM | GI50 (SK-ov-3): 1.5 µM | GI50 (Hs 456.BT): 3 µM | GI50 (OvCar-3): 1.5 µM | GI50 (CEM): 1 µM | GI50 (SW1088): 2 µM | GI50 (CAKI-1): 1.5 µM | cells killed (PC-3 cells; 2.5 µM): 40% | cells killed (PC-3 cells; 5.0 µM): 47% | effect on cell cycle (DNA content) (LnCaP cells): accumulation of cells in the G2/M phase of the cell cycle
